Like-named read-outs stand apart in the source and are kept apart here.
How the values were obtained:
pyruvate kinase = experiment: Pyruvate kinase activity in cultured rat hepatoma FAO cells; format: cell-based; settings: for Km: control 0.14, read-out: Km for the substrate phosphoenolpyruvate (PEP); for inhibition of pyruvate kinase activity: submaximal substrate concentrations; for rise in the Km for substrate (phosphoenolpyruvate): versus control
Procedure: FIG. 11 is a graph showing the effects of the Eudistoma alkaloids on pyruvate kinase activity in cultured rat hepatoma FAO cells. Enzyme activity v/Vmax was assayed as described in Example IV in partially purified extracts from cells incubated for 1 h in the absence ( ) or presence of 100 μM CPT-cAMP (.cndot.) and 26 μM segoline A ( ) as a function of substrate concentrations (phosphoenolpyruvate, PEP).
1. Activity of pyruvate kinase--a key glycolytic enzyme whose activity is inhibited by cAMP-dependent phosphorylation.
FIG. 11 is a graph showing the effects of the Eudistoma alkaloids on pyruvate kinase activity in cultured rat hepatoma FAO cells. Enzyme activity v/Vmax was assayed in partially purified extracts from cells incubated for 1 h in the absence (squares) or presence of 100 μM 8-(4-chlorophenylthio) cyclic AMP (CPT-cAMP)-CPT-cAMP (circles) and 26 μM Segoline A (triangles) as a function of substrate concentrations (phosphoenolpyruvate, PEP).

[1] = test system: neuroblastoma N1E-115 cells; experiment: Growth and morphological differentiation of mouse neuroblastoma N1E-115 cells; settings: for range of effective concentrations that inhibited cell proliferation and induced morphological differentiation / effects on cell appearance: N1E-115 cells; for range of effective concentrations that inhibited cell proliferation and induced morphological differentiation: below range no noticeable effect, above range cytotoxic; for effects on cell appearance: morphology; for most effective concentration for the cells tested: summary, cells tested in the present invention
Procedure: A,B: Untreated cells, 3 (A) and 8 (B) days after subculture. C,D: Cells grown for 3 (C) and 8 (D) days with 12.8 μM Debromoshermilamine. E,F: Cells grown for 7 days with Isosegoline A (39 μM) and Norsegoline (16.3 μM), respectively.
A,B: Untreated cells 3 (A) and 6 (B) days after subculture. C,D: Cells grown for 3 (C) and 6 (D) days with 50 μM forskolin. E,F: Cells grown for 3 (E) and 6 (F) days with 39 μM Segoline A. G,H: Cells grown for 3 (G) and 6 (H) days with 0.14 μM Eilatin.
Cells were grown for six days in the absence of drugs (A), or in the presence of: 10 μM 4-methylpyrido[2,3,4-kl]acridine (B), 4 μM pyrido[2,3,4-kl]acridine (C), 0.08 μM Eilatin (D), 75 μM forskolin (E).
The inventors chose the neuroblastoma N1E-115 cells because these tumor-derived cells can be induced to express characteristic neuronal properties by a variety of procedures see Spector, "Electrophysiology of clonal nerve cell lines. In: Excitable Cells in Tissue Culture", Nelson et al. eds., Plenum, New York 247-277 (1981) and can serve as a useful experimental system in which to explore the effects of the Eudistoma alkaloids on the biological properties of both cancer cells and neuronal cells.
The N1E-115 cells were exposed to various concentrations of the six (6) natural products shown in FIG. 1, and of the two synthetic pyridoacridines shown in Scheme III of FIG. 2. […] A,B: Untreated cells, 3 (A) and 8 (B) days after subculture. C,D: Cells grown for 3 (C) and (8) days with 12.8 μM Debromoshermilamine. E,F: Cells grown for 7 days with Isosegoline A (39 μM) and Norsegoline (16.3 μM), respectively. FIG. 5 illustrates the appearance of N1E-115 cells 6 days after replating in the absence (A) and in the presence of 10 μM 4-methylpyrido[2,3,4-kl]acridine (B), or 4 μM pyrido[2,3,4-kl]acridine.

[2] = test system: normal hamster fibroblast NIL8 cell line; experiment: Growth and morphology of normal NIL8 fibroblast cells; format: cell-based; settings: 12.8 μM Debromoshermilamine, 5 days, single application
Procedure: Cells were grown for 5 days in the absence of drugs (A), and in the presence of 25 μM forskolin (B), 1.4 μM Eilatin (C), or 12.8 μM Debromoshermilamine (D). […]
As illustrated, a single application of 1.4 μM Eilatin or 12.8 μM Debromoshermilamine to NIL8 cells produced effects which are strikingly similar to those obtained by chronically treating time cells with agents that elevate or mimic cAMP. […] This predilection towards cancer cells is a very desirable property in developing potential drugs for the treatment of cancer.

[3] = test system: rat anterior pituitary cells; experiment: Secretion of growth hormone (GH) from dispersed rat anterior pituitary cells; format: cell-based; settings: 3 h; increasing concentrations
Source text: FIG. 13 is a graph showing the effects of Debromoshermilamine on the secretion of growth hormone (GH) from dispersed rat anterior pituitary cells. Each bar represents the mean ±s.e.m of four wells.
3. Growth hormone release from anterior pituitary cells which is stimulated by a number of hormonal factors that activate the adenylyl cyclase system and elevate cellular cAMP levels, see, Bilezikjian et al., Endocrinology, 113, 1726-1731 (1983); Ray et al., Mol. Cell. Endocrinology, 45, 175-182 (1986) and Gabriel et al., Neuroendocrinology, 50 170-176 (1989).
FIG. 13 is a graph showing the effects of debromoshermilamine on the secretion of growth hormone (GH) from dispersed rat anterior pituitary cells. Cells grown in 24-well multiwell plates were incubated for 3 h in fresh medium (DME) in the absence (control) or presence of 1 mM DbcAMP, and increasing concentrations of Debromoshermilamine as indicated. Hormone secretion was measured using rat GH radioimmunoassay. Each bar represents the mean ±s.e.m of four wells.

PEPCK mRNA = experiment: Levels of PEPCK mRNA in FTO-2B rat hepatoma cells (Northern blot); format: cell-based; settings: segoline A 5, 26 and 52 μM; Debromoshermilamine 2.6, 12.8 and 38.4 μM; 4 hours
Procedure: FIG. 12 is a graph showing the effects of Eudistoma alkaloids on levels of PEPCK mRNA in FTO-2B rat hepatoma cells. The cells were exposed for 4 hours to serum-free medium which contained: 5 μM CPT-cAMP (lane 1), 5, 26 and 52 μM segoline A (lanes 2-4), 2.6, 12.8 and 38.4 μM Debromoshermilamine (lanes 5-7) or to serum-free medium alone (lane 8).
2. Induction of mRNA for P-enolpyruvate carboxykinase (PEPCK)--a key enzyme in the gluconeogenesis pathway in liver and kidney cells whose gene transcription rate is stimulated by cAMP see Hod et al., N.Y. Acad. Sci., 478, 31-45 (1986) and Hod et an., J. Biol. Chem., 263, 7747-7752 (1988).
FIG. 12 is a graph showing the effects of Eudistoma alkaloids on levels of PEPCK mRNA in FTO-2B rat hepatoma cells. The cells were exposed to medium which contained: 5 μM 8-CPT-cAMP, 5, 26 and 52 μM Segoline A, 2.6, 12.8 and 38.4 μM Debromoshermilamine or to control medium. The level of mRNA was determined by Northern blot analysis according to Hod et al., J. Biol. Chem., 259, 15603-15608 (1984) using the plasmid pPCK10rc as a hybridization probe, and quantified by densitometric scanning of the autoradiograms which is shown on the left.

| SMILES | Km (pyruvate kinase; concentration of alkaloid not given) [µM] | inhibition of pyruvate kinase activity (pyruvate kinase) | rise in the Km for substrate (phosphoenolpyruvate) (pyruvate kinase) | range of effective concentrations that inhibited cell proliferation and induced morphological differentiation [1] | effects on cell appearance [1] | most effective concentration for the cells tested [1] [µM] | effect on cell shape of NIL8 cells [2] | effect on growth of NIL8 cells [2] | growth hormone release [3] | induction of PEPCK mRNA (PEPCK mRNA) | Km (pyruvate kinase; 26 μM segoline A, 1 h) [µM] | effect on cell division and morphological differentiation ([1]; 39 μM Segoline A, 3 days, single application) | long-term effect on cell division ([1]; 39 μM Segoline A, 6 days, single application) |
| --- | --- | --- | --- | --- | --- | --- | --- | --- | --- | --- | --- | --- | --- |
| CC(=O)NCCc1c2c(c3nccc4c3c1Nc1ccccc1-4)NC(=O)CS2 [Debromoshermilamine] | 460 | inhibit pyruvate kinase activity | ca. 3 fold | 6-32 μM | a large proportion of very flat cells of considerable size and relatively few neurites | 6 to 32 | flatter | growth was inhibited | stimulate growth hormone release, again, in a dose-dependent manner | stimulate the induction of PEPCK mRNA in a dose-dependent manner | – | – | – |
| COc1cc2c3c4c(ccnc14)-c1ccccc1N3C1(C)C(=O)NC(=O)C2C1C (stereo not shown) [Segoline A] | – | inhibit pyruvate kinase activity | ca. 3 fold | 12-52 μM | flattened cell bodies as well as numerous long neurites | 12 to 52 | – | – | – | stimulate the induction of PEPCK mRNA in a dose-dependent manner | 440 | inhibited cell division and induced morphological differentiation | cell division is completely blocked |
